The source of these data is ChEMBL document CHEMBL1201862, “PubChem BioAssay data set” (2004).

Some test systems named below: UACC-257; MCF7; OVCAR-5; OVCAR-8; MOLT-4; K562; A498; SF-295; KM12; RPMI-8226; MDA-MB-435; SNB-19; MDA-MB-231; SNB-75; SF-539; SK-OV-3; SR; NCI-H460; COLO 205; HOP-92.
Holding throughout (test): NCI anticancer screen, dose series, 48 h

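Interpolation was linear, between the two tested concentrations surrounding the appropriate level; five concentrations were tested over 48 hours in 96-well plates. GI50: concentration for 50% inhibition of growth.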 Calls of active or inactive are those of the source. Cut-off read from the data, not from the text of the source: active = GI50 up to about 1.1 µM and inactive = higher.

On to `COC(=O)/C=C\C(C#N)(C#N)/N=C/c1ccc(C)cc1`, for which the GI50 with UACC-257 is 4.24 µM (inactive); in the assay on MCF7 it was 1.67 µM (inactive); in the assay on OVCAR-5 it was 19.7 µM (inactive); in the assay on OVCAR-8 it was 2.25 µM (inactive); with MOLT-4, 0.778 µM (active); in the assay with K562, 3.04 µM (inactive). Besides, the GI50 was 17.7 µM (inactive) in the assay with A498; 25.2 µM (inactive) in the assay with SF-295; 18 µM (inactive) in the assay on KM12; 0.586 µM (active) in the assay with RPMI-8226; 2.21 µM (inactive) in the assay with MDA-MB-435; 19.5 µM (inactive) in the assay on SNB-19. In addition, the GI50 in the assay on MDA-MB-231 was 15.5 µM (inactive); in the assay on SNB-75 it was 15.3 µM (inactive); in the assay with SF-539 it was 4.38 µM (inactive); in the assay with SK-OV-3, 17.6 µM (inactive); in the assay with SR, 0.706 µM (active); in the assay on NCI-H460 it was 19.6 µM (inactive). The GI50 in the assay on COLO 205 is 1.97 µM (inactive); in the assay with HOP-92, 1.09 µM (active).

Consider `O=c1oc2ncccc2n1Cc1ccc([N+](=O)[O-])cc1`, for which the GI50 in the assay with UACC-257, with MCF7, in the assay with OVCAR-5, in the assay with OVCAR-8, in the assay with MOLT-4 and with K562 was > 100 µM (inactive) in each case. Besides, the GI50 in the assay on A498, with SF-295, in the assay with KM12, in the assay with RPMI-8226, in the assay on MDA-MB-435 and with MDA-MB-231 was > 100 µM (inactive) throughout. Also, the GI50 in the assay on SNB-75 was 80.7 µM (inactive); in the assay with SF-539 it was > 100 µM (inactive); in the assay with SK-OV-3, > 100 µM (inactive); in the assay with SR, > 100 µM (inactive); in the assay on NCI-H460, > 100 µM (inactive); with COLO 205 it was > 100 µM (inactive). Also, the GI50 with HOP-92 was > 100 µM (inactive).

Turning to `NC(=O)C[C@H](NC(=O)C1(NC(=O)[C@H](Cc2ccc(CP(=O)(O)O)cc2)NC(=O)C(=O)O)CCCCC1)C(=O)NCCCc1cccc2ccccc12`, the GI50 in the assay on UACC-257, in the assay on MCF7, in the assay with OVCAR-5, in the assay with OVCAR-8, in the assay with MOLT-4 and in the assay on K562 was > 10 µM (inactive) each time. Moreover, the GI50 in the assay with A498, in the assay with SF-295, in the assay with KM12, with RPMI-8226, in the assay on MDA-MB-435 and in the assay with SNB-19 was > 10 µM (inactive) throughout. Further, the GI50 in the assay with MDA-MB-231 was > 10 µM (inactive); with SNB-75 it was > 10 µM (inactive); in the assay with SF-539 it was > 10 µM (inactive); in the assay on SK-OV-3, > 10 µM (inactive); in the assay on SR, 1.82 µM (inactive); with NCI-H460, > 10 µM (inactive). The GI50 with COLO 205 and in the assay on HOP-92 was > 10 µM (inactive) throughout.

Turning to `Cc1cc(C)c(C#N)c(SC(=S)NC(=O)c2ccccc2)n1`, the GI50 in the assay on UACC-257, in the assay with MCF7, with OVCAR-5, in the assay with MOLT-4, in the assay with K562 and with A498 was > 100 µM (inactive) throughout. Further, the GI50 was > 100 µM (inactive) with KM12; > 100 µM (inactive) in the assay with RPMI-8226; > 100 µM (inactive) with MDA-MB-435; > 100 µM (inactive) with SNB-19; > 100 µM (inactive) with MDA-MB-231; 1.53 µM (inactive) in the assay on SNB-75. Further, the GI50 with SF-539, in the assay with SR, in the assay with NCI-H460, in the assay on COLO 205 and with HOP-92 was > 100 µM (inactive) throughout.

As to `O=C1CC(c2ccc(Cl)cc2)C2(C(=O)NC(=S)NC2=O)C(c2ccc(Cl)cc2)C1` (stereo not given), the GI50 in the assay on UACC-257 was 18.5 µM (inactive); in the assay with MCF7 it was 17.3 µM (inactive); with OVCAR-5 it was 19.6 µM (inactive); in the assay on MOLT-4, 25.5 µM (inactive); with K562 it was 30.5 µM (inactive); in the assay with A498, 15.9 µM (inactive). For the same compound, the GI50 with SF-295 was 17.6 µM (inactive); with KM12, 18.5 µM (inactive); in the assay with RPMI-8226 it was 20.6 µM (inactive); with MDA-MB-435 it was 19.5 µM (inactive); with SNB-19, 18.4 µM (inactive); with MDA-MB-231 it was 20.2 µM (inactive). Moreover, the GI50 is 15.1 µM (inactive) with SNB-75; 20 µM (inactive) in the assay on SF-539; 14.9 µM (inactive) in the assay with SK-OV-3; 30.3 µM (inactive) with SR; 14.9 µM (inactive) in the assay on NCI-H460; 16.8 µM (inactive) with COLO 205. Besides, in the assay with HOP-92, the GI50 was 5.31 µM (inactive).

Consider `CC(C)(C)OC(=O)NCCCCC1NC(=O)[C@@H]2Cc3c([nH]c4ccccc34)C(c3ccccc3)N2C1=O` (stereo not given in full), for which the GI50 in the assay with UACC-257 was 35.6 µM (inactive); in the assay with MCF7 it was 35.2 µM (inactive); in the assay with OVCAR-5, 53.8 µM (inactive); in the assay on OVCAR-8 it was 36.2 µM (inactive); in the assay with MOLT-4, 15.6 µM (inactive); in the assay with K562, 33.4 µM (inactive). Also, the GI50 in the assay with A498 is 72.6 µM (inactive); in the assay with SF-295, 22 µM (inactive); in the assay on KM12, 18.9 µM (inactive); in the assay on RPMI-8226, 27.7 µM (inactive); in the assay with MDA-MB-435, 34.2 µM (inactive); with SNB-19, 50.1 µM (inactive). In addition, the GI50 with MDA-MB-231 is 27.4 µM (inactive); with SK-OV-3 it was 50.4 µM (inactive); in the assay with SR it was 13.6 µM (inactive); in the assay with NCI-H460, 30.4 µM (inactive); in the assay with COLO 205, 21.1 µM (inactive); in the assay on HOP-92, 22.8 µM (inactive).

Turning to `O=C(/C=C/c1ccc2ccccc2c1)NCc1ccc(C(=O)NCc2ccccc2)cc1`, the GI50 with UACC-257 was > 100 µM (inactive); in the assay with MCF7, > 83.6 µM (inactive); in the assay with OVCAR-5 it was > 100 µM (inactive); in the assay on OVCAR-8, 30.4 µM (inactive); in the assay with MOLT-4, > 66.7 µM (inactive); with K562 it was > 31.6 µM (inactive). For the same compound, the GI50 is > 83.8 µM (inactive) in the assay on A498; 34.4 µM (inactive) in the assay on SF-295; > 100 µM (inactive) with KM12; > 93.8 µM (inactive) in the assay with RPMI-8226; > 100 µM (inactive) with MDA-MB-435; 35.9 µM (inactive) in the assay on SNB-19. The GI50 with MDA-MB-231 is > 100 µM (inactive); in the assay with SNB-75 it was 19.6 µM (inactive); in the assay with SF-539, 27.5 µM (inactive); in the assay with SK-OV-3, > 100 µM (inactive); in the assay on SR, > 100 µM (inactive); in the assay on COLO 205, > 100 µM (inactive). The GI50 in the assay on HOP-92 was > 100 µM (inactive).

Turning to `COc1ccccc1N1CCN(Cn2c(=O)oc3cccnc32)CC1`, the GI50 in the assay with UACC-257, in the assay with MCF7, in the assay on OVCAR-5, with OVCAR-8, with MOLT-4 and with K562 was > 100 µM (inactive) in each case. Further, the GI50 in the assay with A498, with SF-295, in the assay on RPMI-8226, in the assay on MDA-MB-435, in the assay with SNB-19 and in the assay with MDA-MB-231 was > 100 µM (inactive) in each case. Further, the GI50 was 30 µM (inactive) in the assay on SNB-75; > 100 µM (inactive) in the assay with SF-539; > 100 µM (inactive) in the assay on SK-OV-3; 40.3 µM (inactive) in the assay on SR; > 100 µM (inactive) with NCI-H460; > 100 µM (inactive) with HOP-92.

On to `Clc1ccccc1/C=C\C1(c2ccccc2)OCCO1`, for which the GI50 with UACC-257 is 16.7 µM (inactive); in the assay with MCF7, 2.77 µM (inactive); in the assay with OVCAR-5, 20 µM (inactive); in the assay on OVCAR-8, 17.7 µM (inactive); in the assay on MOLT-4, 15.9 µM (inactive); with K562, 16.7 µM (inactive). Besides, the GI50 in the assay on A498 was 20.7 µM (inactive); with SF-295, 16.7 µM (inactive); in the assay with KM12 it was 11 µM (inactive); in the assay with RPMI-8226, 4.2 µM (inactive); with MDA-MB-435, 15.6 µM (inactive); with MDA-MB-231 it was 12.7 µM (inactive). Also, the GI50 is 19 µM (inactive) in the assay with SNB-75; 24.9 µM (inactive) in the assay with SF-539; 29.8 µM (inactive) in the assay with SK-OV-3; 3.58 µM (inactive) with SR; 16.8 µM (inactive) in the assay with NCI-H460; 21.3 µM (inactive) in the assay with COLO 205. In addition, in the assay on HOP-92, the GI50 was 28.9 µM (inactive).

As to `COc1ccc(/C=N/CCC/N=C/c2ccc(OC)cc2O)c(O)c1`, the GI50 was 36.6 µM (inactive) in the assay with UACC-257; 55.7 µM (inactive) in the assay on MCF7; 64.4 µM (inactive) in the assay on OVCAR-5; 35.6 µM (inactive) in the assay on OVCAR-8; 49.1 µM (inactive) in the assay on MOLT-4; 69 µM (inactive) with K562. Further, the GI50 in the assay with A498 is > 100 µM (inactive); in the assay with SF-295, 17.7 µM (inactive); in the assay on KM12 it was 47.4 µM (inactive); with RPMI-8226, 38.3 µM (inactive); with MDA-MB-435 it was 46.1 µM (inactive); with SNB-19, 47 µM (inactive). Besides, the GI50 in the assay with MDA-MB-231 is 38.7 µM (inactive); in the assay on SNB-75, 13.9 µM (inactive); with SR, 54.6 µM (inactive); in the assay on NCI-H460, > 100 µM (inactive); in the assay on HOP-92 it was 17.6 µM (inactive).

Take `COc1cc(/C=C2/SC(c3ccccc3)N(c3cc(Cl)ccc3Cl)C2=O)cc(OC)c1OC` (stereo not given): the GI50 is > 100 µM (inactive) with UACC-257; 30.8 µM (inactive) with MCF7; > 100 µM (inactive) with OVCAR-5; > 100 µM (inactive) in the assay on OVCAR-8; > 100 µM (inactive) in the assay on MOLT-4; 59 µM (inactive) in the assay on K562. The GI50 in the assay on A498 is > 100 µM (inactive); with SF-295, 47.1 µM (inactive); with KM12 it was 35.7 µM (inactive); in the assay on RPMI-8226, 23.8 µM (inactive); with MDA-MB-435, 22.3 µM (inactive); with SNB-19, > 100 µM (inactive). For the same compound, the GI50 in the assay on MDA-MB-231 was > 100 µM (inactive); with SNB-75 it was 45.1 µM (inactive); in the assay on SK-OV-3, > 100 µM (inactive); in the assay on SR it was 45.5 µM (inactive); in the assay with NCI-H460 it was > 100 µM (inactive); in the assay on COLO 205 it was > 100 µM (inactive). Also, the GI50 in the assay with HOP-92 is > 100 µM (inactive).
